Values of other authors as cited in patent US8748087B2, “Sequence of reverse transcriptase gene and method of use” (Fudan University, priority 2005, dated 2014).

Test system: HBV
Conditions: patients with chronic hepatitis B

interferon alpha
overall response rates: less than 30%
